# Measured values from ChEMBL document CHEMBL1201862, “PubChem BioAssay data set” (2004).
# Active and inactive are the calls of the source.
# Experiments:
# [1] = biological target: T1, RNA-binding protein pos-1 (Caenorhabditis elegans, UniProt G5EF15); assay: disruptors of C. elegans POS-1 RNA interaction – biochemical, fluorescence polarization, dose response (AID 1964);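 note: purified POS-1 fused to maltose binding protein made in E. coli; potency of compounds blocking POS-1 binding to fluorescent RNA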
# T1 sequence (G5EF15 whole entry): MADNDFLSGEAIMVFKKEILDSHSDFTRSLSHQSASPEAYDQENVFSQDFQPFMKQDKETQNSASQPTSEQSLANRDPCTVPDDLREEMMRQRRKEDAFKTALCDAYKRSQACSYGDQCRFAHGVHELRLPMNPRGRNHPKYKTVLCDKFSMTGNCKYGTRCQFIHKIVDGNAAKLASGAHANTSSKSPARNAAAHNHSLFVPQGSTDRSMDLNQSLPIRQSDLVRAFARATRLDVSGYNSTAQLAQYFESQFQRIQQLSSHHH
# [2] = biological target: T2, Zinc finger protein mex-5 (Caenorhabditis elegans, UniProt Q9XUB2); assay: potency of MEX-5 RNA-binding blockers – biochemical, C. elegans, fluorescence polarization, dose response (AID 1960)
# T2 sequence (Q9XUB2 whole entry): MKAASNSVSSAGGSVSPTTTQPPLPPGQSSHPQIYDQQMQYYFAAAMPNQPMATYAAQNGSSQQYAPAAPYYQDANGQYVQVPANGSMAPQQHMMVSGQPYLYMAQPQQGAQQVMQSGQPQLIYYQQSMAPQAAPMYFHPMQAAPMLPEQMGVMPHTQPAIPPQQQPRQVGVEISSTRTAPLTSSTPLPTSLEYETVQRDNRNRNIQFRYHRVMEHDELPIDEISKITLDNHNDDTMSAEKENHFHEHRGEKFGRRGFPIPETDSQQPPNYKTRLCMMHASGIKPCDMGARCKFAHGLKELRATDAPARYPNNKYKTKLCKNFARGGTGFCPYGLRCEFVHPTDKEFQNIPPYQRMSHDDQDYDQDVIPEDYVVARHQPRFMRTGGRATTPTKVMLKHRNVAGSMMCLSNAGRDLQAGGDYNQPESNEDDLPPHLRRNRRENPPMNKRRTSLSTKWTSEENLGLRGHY
# [3] = biological target: T3, Endoribonuclease toxin MazF (Escherichia coli K-12, UniProt P0AE70); assay: activation of MazEF endoribonuclease cleavage – biochemical, fluorescence, single-stranded RNA substrate, uHTS hits, dose response (AID 588481); type: functional
# T3 sequence (P0AE70 whole entry): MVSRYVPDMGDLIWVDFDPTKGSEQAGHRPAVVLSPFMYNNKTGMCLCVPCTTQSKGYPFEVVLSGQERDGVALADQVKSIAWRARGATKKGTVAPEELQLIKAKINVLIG
# [4] = biological target: T3, Endoribonuclease toxin MazF; assay: substrate-only fluorescence increase artefacts – biochemical, single-stranded RNase substrate, counter-screen for MazEF activator project, dose response (AID 588502); type: functional
# HEK293 = assay: cells; type: functional, cell-based; details: Homo sapiens
# [5] = biological target: T4, Nuclear receptor subfamily 0 group B member 1 (Homo sapiens, UniProt P51843); assay: Luminescence-based cell-based high throughput dose response assay for inhibitors of the orphan nuclear receptor subfamily 0, group B, member 1 (DAX1; NR0B1). [Related pubchem assays (depositor defined):AID504766, AID504790]; type: functional
# T4 sequence (P51843 whole entry): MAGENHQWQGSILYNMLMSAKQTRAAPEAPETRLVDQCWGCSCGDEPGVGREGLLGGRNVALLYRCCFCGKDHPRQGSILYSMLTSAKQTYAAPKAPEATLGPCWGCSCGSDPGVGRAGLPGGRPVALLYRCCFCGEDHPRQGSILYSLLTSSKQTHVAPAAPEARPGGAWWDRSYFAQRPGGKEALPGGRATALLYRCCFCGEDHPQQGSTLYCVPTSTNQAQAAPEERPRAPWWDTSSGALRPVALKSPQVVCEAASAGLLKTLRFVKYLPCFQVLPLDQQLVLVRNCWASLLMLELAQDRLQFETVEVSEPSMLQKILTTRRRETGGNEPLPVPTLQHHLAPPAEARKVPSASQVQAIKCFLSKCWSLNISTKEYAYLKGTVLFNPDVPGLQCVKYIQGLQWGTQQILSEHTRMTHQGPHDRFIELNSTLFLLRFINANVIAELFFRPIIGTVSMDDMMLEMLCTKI
# [6] = biological target: T5, Short transient receptor potential channel 4 (Mus musculus, UniProt Q9QUQ5); assay: calcium entry via TRPC4 opening agents – cell-based, HEK293 TRPC4/mu-opioid, Fluo-4 calcium, dose response (AID 434937); type: functional
# T5 sequence (Q9QUQ5 whole entry): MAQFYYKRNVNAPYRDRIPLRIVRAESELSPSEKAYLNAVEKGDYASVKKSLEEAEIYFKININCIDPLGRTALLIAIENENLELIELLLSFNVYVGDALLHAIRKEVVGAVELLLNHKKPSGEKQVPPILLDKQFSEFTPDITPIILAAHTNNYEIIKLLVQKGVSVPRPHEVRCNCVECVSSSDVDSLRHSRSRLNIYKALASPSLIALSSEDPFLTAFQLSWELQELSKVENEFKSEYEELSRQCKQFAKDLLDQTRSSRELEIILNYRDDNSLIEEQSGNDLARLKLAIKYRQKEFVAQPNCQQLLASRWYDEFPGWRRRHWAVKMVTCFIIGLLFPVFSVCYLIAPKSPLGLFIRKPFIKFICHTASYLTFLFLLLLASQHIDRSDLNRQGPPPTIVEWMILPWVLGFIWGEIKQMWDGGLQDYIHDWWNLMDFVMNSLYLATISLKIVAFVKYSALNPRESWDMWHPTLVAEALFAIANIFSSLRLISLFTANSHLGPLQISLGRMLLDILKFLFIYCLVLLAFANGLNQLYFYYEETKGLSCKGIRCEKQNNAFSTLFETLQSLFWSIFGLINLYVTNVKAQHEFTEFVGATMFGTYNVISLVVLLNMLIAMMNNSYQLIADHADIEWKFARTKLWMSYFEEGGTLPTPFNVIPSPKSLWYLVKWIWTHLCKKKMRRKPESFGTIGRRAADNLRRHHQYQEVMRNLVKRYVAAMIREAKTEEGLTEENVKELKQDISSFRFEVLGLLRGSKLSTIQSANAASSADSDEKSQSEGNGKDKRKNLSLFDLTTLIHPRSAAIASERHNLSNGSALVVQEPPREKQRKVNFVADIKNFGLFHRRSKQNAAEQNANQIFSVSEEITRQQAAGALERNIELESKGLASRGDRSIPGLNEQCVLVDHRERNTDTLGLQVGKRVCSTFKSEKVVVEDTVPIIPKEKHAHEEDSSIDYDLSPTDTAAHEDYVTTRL
# Nonstructural protein 1 = Nonstructural protein 1 (Influenza A virus, UniProt Q194T2); type: functional, Influenza A virus (A/California/07/2009(H1N1))
# Protein skinhead-1 = biological target: T6, Protein skinhead-1 (Caenorhabditis elegans, UniProt P34707); type: functional
# T6 sequence (P34707 whole entry): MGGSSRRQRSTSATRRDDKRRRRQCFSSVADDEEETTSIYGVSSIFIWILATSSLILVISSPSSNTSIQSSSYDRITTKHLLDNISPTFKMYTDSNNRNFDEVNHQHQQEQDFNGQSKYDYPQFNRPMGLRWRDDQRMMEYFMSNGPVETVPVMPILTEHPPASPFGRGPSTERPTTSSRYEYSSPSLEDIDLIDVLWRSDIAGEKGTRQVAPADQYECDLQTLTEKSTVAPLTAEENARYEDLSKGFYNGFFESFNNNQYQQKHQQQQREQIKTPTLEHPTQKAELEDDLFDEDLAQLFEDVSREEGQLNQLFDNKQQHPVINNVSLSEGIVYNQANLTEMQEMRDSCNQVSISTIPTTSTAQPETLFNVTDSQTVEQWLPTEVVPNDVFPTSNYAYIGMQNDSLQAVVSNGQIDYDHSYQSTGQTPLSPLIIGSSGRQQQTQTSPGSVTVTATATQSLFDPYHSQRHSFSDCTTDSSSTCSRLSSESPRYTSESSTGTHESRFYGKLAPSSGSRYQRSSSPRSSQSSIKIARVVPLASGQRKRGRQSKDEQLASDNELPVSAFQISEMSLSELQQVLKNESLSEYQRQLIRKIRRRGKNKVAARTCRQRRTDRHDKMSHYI
# [7] = luciferase reporter signal suppression in cells – H4 neuroglioma cells, luminescence, dose response (AID 1990); type: functional, cell-based
# [8] = Luminescence Cell-Based Dose Response HTS to Identify Inhibitors of 5'UTR Stem-Loop Driven Prion Protein mRNA Translation in H4 Neuroglioblastoma Cells. [Related pubchem assays: 1827 (Project Summary), 1813 (Primary HTS)]; type: functional
# [9] = HEK-293T viability loss after treatment – luminescence, T-cell screen hits, cytotoxicity control for TCR NF-kB inhibitor project, dose response (AID 489026); type: functional, cell-based;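 note: cells exposed to compound about 14 hours before the viability readout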
# BJ [10] = assay: BJ-TERT fibroblast viability loss – cell-based, RAS-independent, luminescence, dose response (AID 1933); type: functional; details: Homo sapiens
# [11] = alpha-synuclein stem-loop luciferase translation blockers – H4 neuroglioma cells, luminescence, confirmation (AID 1988); type: functional, cell-based
# BJ [12] = assay: cells; type: functional, cell-based; details: Homo sapiens
# BJ [13] = assay: BJ-TERT-LT-ST fibroblast viability loss – cell-based, RAS-independent, luminescence, dose response (AID 1935); type: functional; details: Homo sapiens;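 note: BJ fibroblasts immortalized with TERT plus LT and ST oncogenes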
# [14] = DRD fibroblast viability loss – cell-based, non-viral oncogenic, luminescence, dose response (AID 1934); type: functional; details: Homo sapiens
# Vero = assay: cells; type: functional; details: Chlorocebus sabaeus
# Chain of Nonstructural protein 1 (Q194T2 whole entry): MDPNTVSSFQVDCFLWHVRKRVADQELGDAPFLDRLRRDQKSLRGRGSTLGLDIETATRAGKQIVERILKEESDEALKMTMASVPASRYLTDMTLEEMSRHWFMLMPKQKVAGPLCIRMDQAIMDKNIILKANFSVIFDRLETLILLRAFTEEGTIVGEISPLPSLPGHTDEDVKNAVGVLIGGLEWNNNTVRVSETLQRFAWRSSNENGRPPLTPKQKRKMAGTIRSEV
structure (smiles),measurement,setting,value
COc1ccc(/C=C2\CCCC(C(=O)C(F)(F)F)=C2O)cc1,EC50,[1],36 µM (inconclusive)
same,EC50,[2],41.4 µM (active)
same,EC50,[3],> 99 µM (inactive)
same,EC50,[4],33.8 µM (inactive)
COc1ccc(-c2cc3nc4n(c(=O)c3s2)CCCCC4)cc1,IC50,HEK293,> 67.5 µM (inactive)
same,IC50,[5],> 67.5 µM (inactive)
COc1ccc(CN2CCC(n3nccc3NC(=O)CCc3ccccc3)CC2)c(C)c1C,EC50,[6],2.11 µM (active)
CCOc1ccccc1NC(=O)Cn1cnc2c(cnn2-c2ccc(C)c(C)c2)c1=O,EC50,[3],> 99 µM (inactive)
same,EC50,[4],> 99 µM (inactive)
CCN1C(=O)/C(=C2\C=Cc3cc(C)ccc3N2CC)OC1=S,IC50,Nonstructural protein 1,> 100 µM (active)
same,IC50,Protein skinhead-1,> 100 µM (inactive)
Cc1ccc2[nH]c(SCC(=O)Nc3cc(C(F)(F)F)ccc3N3CCOCC3)nc2c1,EC50,[7],5.2 µM (inconclusive)
same,EC50,[8],27.9 µM (active)
same,IC50,[9],> 80 µM (inactive)
COCCN(C(S)=Nc1cccc(C)c1C)C(C)c1ccco1 (stereo unspecified),IC50,HEK293,> 67.6 µM (inactive)
same,IC50,[5],> 67.6 µM (inactive)
CCN1C(=O)/C(=C2\C=Cc3ccccc3N2CC)OC1=S,EC50,[3],> 99 µM (inactive)
same,EC50,[4],> 99 µM (inactive)
CCOc1cnc(C(=O)NNC(=O)C(Br)C(C)C)o1 (stereo unspecified),IC50,HEK293,> 67.5 µM (inactive)
same,IC50,[5],> 67.5 µM (inactive)
COc1ccc(-c2[nH]ncc2CN2CCN(Cc3cccs3)CC2)cc1F,IC50,HEK293,> 67.5 µM (inactive)
same,IC50,[5],> 67.5 µM (inactive)
Oc1cc(-c2ccccc2)nc2cc(Cl)ccc12,EC50,[7],2.42 µM (inconclusive)
same,EC50,BJ [10],1.04 µM (active)
same,EC50,[8],2.36 µM (active)
same,EC50,[11],0.209 µM (active)
same,EC50,BJ [12],19.8 µM (active)
same,EC50,BJ [13],1.42 µM (inconclusive)
same,EC50,[14],0.906 µM (inconclusive)
same,IC50,[9],> 80 µM (inactive)
O=[N+]([O-])c1ccc(N2CCCNCC2)c2ncccc12,EC50,[6],0.008 µM (active)
COc1ccc(/C=C2/CSC/C(=C/c3ccc(OC)c(OC)c3)C2=O)cc1OC,CC50,Vero,8.1 µM (active)
COc1ccc(C(CNC(=O)c2cccc(S(=O)(=O)NCc3ccccc3)c2)N(C)C)cc1 (stereo unspecified),EC50,[6],0.421 µM (active)
COc1ccccc1C(=O)NCc1nnc(SCC(=O)Nc2nccs2)n1C,IC50,HEK293,> 67.6 µM (inactive)
same,IC50,[5],> 67.6 µM (inactive)
Cc1csc2c(N3CCN(C(=O)NC(C)(C)C)CC3)ncnc12,EC50,[6],5.31 µM (active)
